Experimental findings from ChEMBL document CHEMBL1154987, “C-Aryl glycoside inhibitors of SGLT2: Exploration of sugar modifications including C-5 spirocyclization” (Bioorg Med Chem Lett, 2010) are described below.

The target of data set [1] is T1, Sodium/glucose cotransporter 1 (Homo sapiens, UniProt P13866).
T1 sequence (P13866 whole entry): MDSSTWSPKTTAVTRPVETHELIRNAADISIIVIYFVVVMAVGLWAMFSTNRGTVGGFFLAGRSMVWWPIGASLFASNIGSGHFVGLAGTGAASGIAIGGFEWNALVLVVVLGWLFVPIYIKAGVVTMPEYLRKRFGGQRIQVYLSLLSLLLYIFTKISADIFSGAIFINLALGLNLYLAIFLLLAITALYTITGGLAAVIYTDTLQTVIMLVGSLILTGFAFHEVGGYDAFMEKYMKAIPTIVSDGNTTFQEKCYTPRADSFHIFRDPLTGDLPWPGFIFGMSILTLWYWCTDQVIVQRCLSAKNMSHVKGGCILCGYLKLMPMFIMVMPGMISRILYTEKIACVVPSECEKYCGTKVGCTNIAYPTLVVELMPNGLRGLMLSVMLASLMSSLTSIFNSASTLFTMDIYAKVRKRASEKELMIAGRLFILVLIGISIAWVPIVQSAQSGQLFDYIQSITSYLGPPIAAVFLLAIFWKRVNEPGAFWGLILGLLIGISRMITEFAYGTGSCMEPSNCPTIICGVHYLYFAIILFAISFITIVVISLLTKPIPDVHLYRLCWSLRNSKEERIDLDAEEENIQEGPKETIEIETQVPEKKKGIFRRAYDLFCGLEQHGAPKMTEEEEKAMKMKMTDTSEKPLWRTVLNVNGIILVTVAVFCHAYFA
Description: Inhibition of human SGLT1 expressed in CHO cells assessed as inhibition of sodium-dependent methyl-alpha-D-[U-14C]glucopyranoside uptake after 2 hrs. In kind it is cell-based.

Data set [2] addresses T2, Sodium/glucose cotransporter 2 (Homo sapiens, UniProt P31639).
T2 sequence (P31639 whole entry): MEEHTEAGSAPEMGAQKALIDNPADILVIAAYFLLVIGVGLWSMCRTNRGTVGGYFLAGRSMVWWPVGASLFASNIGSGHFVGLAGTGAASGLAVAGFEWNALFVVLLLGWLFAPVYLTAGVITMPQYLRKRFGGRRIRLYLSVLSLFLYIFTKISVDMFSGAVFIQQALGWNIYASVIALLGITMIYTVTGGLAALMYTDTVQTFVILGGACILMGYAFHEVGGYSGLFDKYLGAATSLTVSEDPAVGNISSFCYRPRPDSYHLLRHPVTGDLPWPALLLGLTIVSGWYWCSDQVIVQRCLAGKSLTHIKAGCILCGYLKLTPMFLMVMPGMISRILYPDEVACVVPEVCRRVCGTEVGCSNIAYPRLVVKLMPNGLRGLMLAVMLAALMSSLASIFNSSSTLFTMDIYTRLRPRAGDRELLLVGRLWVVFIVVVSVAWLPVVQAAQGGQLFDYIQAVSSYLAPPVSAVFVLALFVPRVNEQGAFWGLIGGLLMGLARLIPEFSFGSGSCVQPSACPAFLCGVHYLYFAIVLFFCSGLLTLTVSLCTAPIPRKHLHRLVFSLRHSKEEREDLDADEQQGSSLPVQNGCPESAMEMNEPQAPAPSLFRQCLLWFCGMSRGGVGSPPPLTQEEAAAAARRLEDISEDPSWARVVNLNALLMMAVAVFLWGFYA
Kind of data set: Inhibition of human SGLT2 expressed in CHO cells assessed as inhibition of sodium-dependent methyl-alpha-D-[U-14C]glucopyranoside uptake after 2 hrs. In kind it is cell-based.

The species entered for the next data set is Homo sapiens. Description: Selectivity ratio of IC50 for human SGLT2 over IC50 for human SGLT1.
Data set [3] is described as follows: Volume of distribution at steady state in Sprague-Dawley rat at 1 mg/kg, iv. The format is ADME, organism-based. Set-up: dose 1 mg/kg, route intravenous. As to conditions: in vivo, read-out: Vdss.
A short description of data set [4]: Clearance in Sprague-Dawley rat at 1 mg/kg, iv. In kind it is ADME, organism-based. Also on record: dose 1 mg/kg, route intravenous. As to conditions: in vivo.
Data set [5] can be described thus: Half life in Sprague-Dawley rat at 1 mg/kg, iv. In kind it is ADME, organism-based. Also on record: dose 1 mg/kg, route intravenous. Particulars: in vivo.
A short description of data set [6]: Volume of distribution at steady state in Sprague-Dawley rat at 2 mg/kg, iv. As to conditions: in vivo, read-out: Vdss. The format is ADME, organism-based. Also on record: dose 2 mg/kg, route intravenous.
Data set [7] is described as follows: Oral bioavailability in Sprague-Dawley rat at 5 mg/kg. In kind it is ADME, organism-based. Particulars: in vivo.
Data set [8] is described as follows: Clearance in Sprague-Dawley rat at 2 mg/kg, iv. The format is ADME, organism-based. Also on record: dose 2 mg/kg, route intravenous. Particulars: in vivo.
A short description of data set [9]: Half life in Sprague-Dawley rat at 2 mg/kg, iv. In kind it is ADME, organism-based. Set-up: dose 2 mg/kg, route intravenous. Particulars: in vivo.
The next data set deals with Rattus norvegicus. Description: Antidiabetic activity in Sprague-Dawley rat assessed as maximum urinary glucose excretion at 60 mg/kg, po over 24 hrs measured per 200 g body weight. In kind it is functional, Urine.

Broadly, the IC50 is the point on the concentration scale where inhibition reaches its midpoint. Usually clearance stands for the volume of plasma or blood freed of the substance per unit of time. High values mean a high capacity for elimination, low ones a low capacity for elimination. The term half-life denotes the time in which the quantity being followed falls by half. Lower therefore signals fast loss. One may read the bioavailability as dose-corrected exposure relative to a reference, in per cent.

For `COc1ccc(Cc2cc([C@@H]3O[C@H](CO)[C@@H](O)[C@H](O)[C@H]3O)ccc2Cl)cc1`, the IC50 stood at 240 nM in [1] and 1 nM in data set [2].

`COc1ccc(Cc2cc([C@@H]3OC(CO)(CO)[C@@H](O)[C@H](O)[C@H]3O)ccc2Cl)cc1`: the IC50 in data set [1] was found to be 6800 nM; in [2] it was 59 nM.

As for `CCc1ccc(Cc2cc([C@@H]3OC4(COC4)[C@@H](O)[C@H](O)[C@H]3O)ccc2C)cc1`, the half-inhibitory concentration (IC50) stood at 1500 nM in data set [1] and 3.4 nM in data set [2].

For `COc1ccc(Cc2cc([C@@H]3O[C@H](CO)C[C@H](O)[C@H]3O)ccc2Cl)cc1`, the IC50 in [2] was found to be 21 nM.

Consider `COc1ccc(Cc2cc([C@@H]3O[C@H](C)[C@@H](O)[C@H](O)[C@H]3O)ccc2Cl)cc1`, for which the values for the IC50 in data set [1] and in [2] were 73 nM and 2.4 nM, respectively.

As to `CCc1ccc(Cc2cc([C@@H]3OC4(CC4)[C@@H](O)[C@H](O)[C@H]3O)ccc2C)cc1`, the Ratio IC50 in the data set filed under Homo sapiens stood at 63. Besides, the IC50 is 190 nM in data set [1] and 3 nM in [2]. In [3], the Vd came out at 5.7 L/kg. In data set [4], this molecule displayed a clearance of 112 mL/min/kg. The molecule further gave a half-life in data set [5] of 35.4 min.

With `COc1ccc(Cc2cc([C@@H]3OC4(COC4)[C@@H](O)[C@H](O)[C@H]3O)ccc2Cl)cc1`, the IC50 was more than 9600 nM in data set [1] and 23 nM in data set [2].

Regarding `CCc1ccc(Cc2cc([C@H]3C[C@@H](O)[C@H](O)[C@@H](CO)O3)ccc2C)cc1`, in data set [2], the IC50 is more than 10000 nM.

As for `COc1ccc(Cc2cc([C@@H]3O[C@H](CO)[C@@H](O)[C@H](O)[C@H]3OC)ccc2Cl)cc1`, in data set [2], the half-inhibitory concentration (IC50) was found to be 140 nM.

`CCOc1ccc(Cc2cc([C@@H]3O[C@H](CO)[C@@H](O)[C@H](O)[C@H]3O)ccc2Cl)cc1` [DAPAGLIFLOZIN]: the Vd in data set [6] amounted to 3.8 L/kg. Moreover, the bioavailability in data set [7] was 100%. The molecule also showed a clearance in [8] of 10 mL/min/kg. For the same molecule, the half-life in data set [9] was 264 min.

`COc1ccc(Cc2cc([C@@H]3O[C@H](CO)[C@@H](OC)[C@H](O)[C@H]3O)ccc2Cl)cc1`: in data set [2], the IC50 turned out to be 180 nM.

As to `COc1ccc(Cc2cc([C@@H]3OC4(CC4)[C@@H](O)[C@H](O)[C@H]3O)ccc2C)cc1`, in the data set listed under Homo sapiens, the Ratio IC50 is 47. In addition, the half-inhibitory concentration (IC50) was determined as 370 nM in data set [1] and 7.9 nM in data set [2]. Besides, in data set [3], the Vd turned out to be 2.6 L/kg. The molecule further registered a clearance in [4] of 48.9 mL/min/kg. This molecule also gave a half-life in [5] of 36.6 min.

In the case of `CCc1ccc(Cc2cc([C@@H]3O[C@]4(CCCO4)[C@@H](O)[C@H](O)[C@H]3O)ccc2C)cc1`, the IC50 was determined as 1100 nM in [1] and 53 nM in [2].

On to `CCOc1ccc(Cc2cc([C@@H]3OC4(COC4)[C@@H](O)[C@H](O)[C@H]3O)ccc2Cl)cc1`, for which the IC50 in data set [1] turned out to be 5600 nM; in data set [2] it was 32 nM.

On to `CCc1ccc(Cc2cc([C@@H]3O[C@H](CO)[C@@H](O)C[C@H]3O)ccc2C)cc1`, for which, in [2], the IC50 was 2000 nM.

Take `CCc1ccc(Cc2cc([C@@H]3OC4(CS(=O)(=O)C4)[C@@H](O)[C@H](O)[C@H]3O)ccc2C)cc1`: the half-maximal inhibitory concentration (IC50) is more than 10000 nM in data set [1] and 14 nM in data set [2].

For the molecule `COc1ccc(Cc2cc([C@@H]3OC4(COC4)[C@@H](O)[C@H](O)[C@H]3O)ccc2C)cc1`, the IC50 in data set [1] amounted to 1540 nM; in data set [2] it was 6.6 nM. Also, the Vd in [6] was determined as 2.3 L/kg. In data set [7], this molecule registered a bioavailability of 100%. The same molecule yielded a clearance in data set [8] of 22.3 mL/min/kg. For the same molecule, the Activity in the data set on Rattus norvegicus is listed as 2000 mg. The molecule further gave a half-life in data set [9] of 72 min.

Consider `CCc1ccc(Cc2cc([C@@H]3O[C@H](CO)[C@H](O)[C@H](O)[C@H]3O)ccc2C)cc1`, for which, in [2], the IC50 was found to be 139 nM.

Take `CCc1ccc(Cc2cc([C@@H]3O[C@H](CO)[C@@H](O)[C@H](O)[C@H]3O)ccc2C)cc1`: in [2], the IC50 worked out at 1.5 nM.

Consider `COc1ccc(Cc2cc([C@@H]3O[C@H](CF)[C@@H](O)[C@H](O)[C@H]3O)ccc2Cl)cc1`, for which the IC50 in data set [2] stood at 5.1 nM.

On to `CCc1ccc(Cc2cc([C@@H]3OC4(CNC4)[C@@H](O)[C@H](O)[C@H]3O)ccc2C)cc1`, for which the 50% inhibitory concentration (IC50) in data set [1] was more than 10000 nM; in data set [2] it was 5100 nM.

Regarding `CCc1ccc(Cc2cc([C@@H]3O[C@H](CO)[C@@H](O)[C@@H](O)[C@H]3O)ccc2C)cc1`, the concentration for half-maximal inhibition (IC50) in data set [2] came out at 3700 nM.
